Assay results taken from patent US20260191863A1, “PYRROLOPYRIMIDINE COMPOSITIONS FOR TREATMENT OF ITK MEDIATED CONDITIONS” (ACLARIS THERAPEUTICS, INC., priority 2022, published 2026).
Several values for one entry are separate records, joined by “and”; a condition that tells them apart may be missing. Equal values may be shown once. Entries after “also recorded” stand apart in the source; their conditions may differ. Read-outs that look alike come from different tables or passages of the source.

Columns and labels:
[1] = Phase 1 SAD study: safety and tolerability; type: in vivo, human
Procedure: Primary Endpoints—Number and percentage of adverse events (AEs) and serious adverse events (SAEs); mean change from baseline in laboratory values, vital signs, and electrocardiograms (ECGs) abnormalities.
Type of Study—This was an FIH, randomized, observer-blind, placebo-controlled study designed to evaluate the safety, tolerability, PK, and PD of Compound I in healthy subjects. The study consisted of: single ascending dose (SAD) cohorts (1-80 mg/day) plus formulation bridging and food effect (FE) cohorts.
Approximately 64 male and female subjects were enrolled into 8 planned cohorts in the SAD study. In each cohort, a total of 8 subjects were randomized to receive a single oral capsule dose of Compound I (n=6) or placebo (n=2) in the morning with approximately 240 mL of water after an overnight fast of at least 8 hours.

ITK (IFNγ mRNA) = assay: Pre-clinical αCD3/αCD28 stimulated IFNγ mRNA; type: cell-based; conditions: Homo sapiens
[2] = system: αCD3 & αCD28 stimulated IL2mRNA; assay: MAD ex vivo PD: αCD3 & αCD28 stimulated IL2 mRNA; type: in vivo; conditions: Homo sapiens
Source text: (§1) Exploratory Endpoints—Mean change from baseline in cellular, extracellular (secreted), and/or message markers of inflammation.
(§2) EC50 and IC50 data for αCD3 & αCD28 stimulated IL2mRNA, IL15 stimulated IFNγ protein, and αCD3 & IL15 stimulated IFNγ protein is shown in table 9.

[3] = system: αCD3 & IL15 stimulated IFNγ protein; assay: MAD ex vivo PD: αCD3 & IL15 stimulated IFNγ protein; type: in vivo, human
Source text: as §1, §2

[4] = 13 week toxicology and toxicokinetic study in cynomolgus monkeys; type: in vivo, cynomolgus monkey; conditions: for AUC(0-t) / Cmax: in vivo
Source text: Purpose: Evaluation of toxicity and toxicokinetic (TK) for Compound I, following daily dosing for 13 weeks.

ITK = biological target: T1, ITK (Homo sapiens, UniProt Q08881); assay: Cell IC50 ITK (Jurkat/pPLCγ1); type: cell-based
T1 construct: (Jurkat/pPLCγ1); endogenous in cells; host or cells: Jurkat
T1 sequence (Q08881 1-620): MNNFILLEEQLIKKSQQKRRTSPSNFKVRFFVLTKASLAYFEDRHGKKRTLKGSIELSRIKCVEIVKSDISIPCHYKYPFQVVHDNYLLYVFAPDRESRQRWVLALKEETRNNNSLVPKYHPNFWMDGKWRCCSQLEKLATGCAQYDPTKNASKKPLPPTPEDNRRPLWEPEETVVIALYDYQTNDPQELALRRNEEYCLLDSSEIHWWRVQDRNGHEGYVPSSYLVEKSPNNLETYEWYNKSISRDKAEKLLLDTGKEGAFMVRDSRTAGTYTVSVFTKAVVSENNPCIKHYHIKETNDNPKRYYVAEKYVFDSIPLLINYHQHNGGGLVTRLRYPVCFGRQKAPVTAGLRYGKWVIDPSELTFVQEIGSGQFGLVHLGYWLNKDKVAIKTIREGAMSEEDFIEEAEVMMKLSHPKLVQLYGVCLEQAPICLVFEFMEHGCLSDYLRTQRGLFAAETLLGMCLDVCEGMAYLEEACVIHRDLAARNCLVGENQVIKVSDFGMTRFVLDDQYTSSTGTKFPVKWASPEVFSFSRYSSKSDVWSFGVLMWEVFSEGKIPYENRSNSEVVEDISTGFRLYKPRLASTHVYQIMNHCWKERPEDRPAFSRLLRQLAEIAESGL

ITK and JAK3 = assay: MAD exploratory PD, all biomarker readouts; type: in vivo, human
Procedure: as §1
Results: 57 subjects completed the MAD study. […] Peak concentrations were reached within 2 hours after dosing.

## C=CC(=O)N1C[C@H](Nc2ncnc3[nH]cc([C@H]4CC4(F)F)c23)CC[C@@H]1C [Compound I, 1-((2S,5R)-5-((5-((R)-2,2-difluorocyclopropyl)-7H-pyrrolo[2,3-d]pyrimidin-4-yl)amino)-2-methylpiperidin-1-yl)prop-2-en-1-one]
[1]; SAD
  Deaths, serious AEs, discontinuations due to AEs: no deaths, serious AEs, or discontinuations due to AEs
  Safety and tolerability conclusion: safe and well tolerated
  Severity of TEAEs: mild and transient
[1]; SAD highest dose group (80 mg)
  Transient increase in CK at follow-up: 2 subjects
  Transient increase in transaminases at follow-up: 1 subject
[1]; SAD, 13 subjects
  Number of TEAEs in Compound I treated subjects: 14
[1]; SAD, during treatment and at follow-up
  Changes in WBC count: No clinically meaningful changes
ITK (IFNγ mRNA)
  EC50: 0.0173 ± 0.003 µM
[2]
  EC50: 0.0019 µg/mL and 5.3 nM
[3]; Homo sapiens, read-out: MAD EC50
  EC50: 0.0041 µg/mL and 11.4 nM
[3]; human whole blood dual stimulation, read-out: Human Compound I Cp to reach HWB dual stim EC50 (MAD PD data)
  EC50: ≥ 3.47 ng/mL
[4]; cynomolgus monkey, daily dosing 13 weeks
  No observed adverse effect level: 3 mpk
[4]; cynomolgus monkey, 3 mg/kg, monkey 3 mpk, Day 1, read-out: AUC0-24
  AUC(0-t): 153 ± 29.1 ng·h/mL
[4]; cynomolgus monkey, 3 mg/kg, monkey 3 mpk, Day 1, read-out: Cmax
  Cmax: 104 ± 48.9 ng/mL
[4]; cynomolgus monkey, 3 mg/kg, monkey 3 mpk, Day 28, read-out: AUC0-24
  AUC(0-t): 412 ± 191 ng·h/mL
[4]; cynomolgus monkey, 3 mg/kg, monkey 3 mpk, Day 28, read-out: Cmax
  Cmax: 304 ± 156 ng/mL
[4]; cynomolgus monkey, 3 mg/kg, monkey, NOAEL 3 mpk, read-out: AUC0-24 h at NOAEL
  AUC(0-t): 356 ng·h/mL
[4]; cynomolgus monkey, 3 mg/kg, monkey, NOAEL 3 mpk, read-out: Cmax at NOAEL
  Cmax: 232 ng/mL
[4]; cynomolgus monkey, 6 mg/kg, monkey 6 mpk, Day 1, read-out: AUC0-24
  AUC(0-t): 692 ± 223 ng·h/mL
[4]; cynomolgus monkey, 6 mg/kg, monkey 6 mpk, Day 1, read-out: Cmax
  Cmax: 401 ± 153 ng/mL
[4]; cynomolgus monkey, 6 mg/kg, monkey 6 mpk, Day 28, read-out: AUC0-24
  AUC(0-t): 1880 ± 911 ng·h/mL
[4]; cynomolgus monkey, 6 mg/kg, monkey 6 mpk, Day 28, read-out: Cmax
  Cmax: 985 ± 475 ng/mL
[4]; cynomolgus monkey, 6 mg/kg, monkey 6 mpk, Day 91, read-out: AUC0-24
  AUC(0-t): 1410 ± 6190 ng·h/mL
[4]; cynomolgus monkey, 6 mg/kg, monkey 6 mpk, Day 91, read-out: Cmax
  Cmax: 784 ± 512 ng/mL
[4]; cynomolgus monkey, 12 mg/kg, monkey 12 mpk, Day 1, read-out: AUC0-24
  AUC(0-t): 2510 ± 1420 ng·h/mL
[4]; cynomolgus monkey, 12 mg/kg, monkey 12 mpk, Day 1, read-out: Cmax
  Cmax: 975 ± 648 ng/mL
[4]; cynomolgus monkey, 12 mg/kg, monkey 12 mpk, Day 28, read-out: AUC0-24
  AUC(0-t): 6930 ± 3790 ng·h/mL
[4]; cynomolgus monkey, 12 mg/kg, monkey 12 mpk, Day 28, read-out: Cmax
  Cmax: 2160 ± 724 ng/mL
[4]; cynomolgus monkey, 12 mg/kg, monkey 12 mpk, Day 91, read-out: AUC0-24
  AUC(0-t): 6430 ± 3660 ng·h/mL
[4]; cynomolgus monkey, 12 mg/kg, monkey 12 mpk, Day 91, read-out: Cmax
  Cmax: 1960 ± 677 ng/mL
[4]; monkey 3 mpk
  Ratio over time (D 91/D 1) AUC: 2.4
  Ratio over time (D 91/D 1) Cmax: 2.8
[4]; monkey 6 mpk
  Ratio over time (D 91/D 1) AUC: 2.2
  Ratio over time (D 91/D 1) Cmax: 2.2
[4]; monkey 12 mpk
  Ratio over time (D 91/D 1) AUC: 2.6
  Ratio over time (D 91/D 1) Cmax: 2.5
[4]; monkey, 12 mpk, 12 mg/kg
  Morbidity / un-scheduled sacrifice: morbidity and significant symptoms necessitating un-scheduled sacrifice and dosing holiday
[4]; monkey, 13 weeks
  Effects on body weight (overall), food consumption (overall), clinical pathology in general, anatomic pathology, ophthalmology: No adverse effects observed
  Opportunistic infection in GI tract: dose-dependent opportunistic infection in GI tract
[4]; monkey, more significant and persistent in mid/high dose groups
  Adverse effects: Liquid and non-formed feces associated with dehydration
ITK
  Potency on ITK relative to ritlecitinib: ~ 100 ×
  Potency relative to Ritlecitinib, ITK (Jurkat/pPLCγ1): 81 fold
  T cell receptor blockade, Compound I vs CsA: equipotent
ITK; Jurkat, pPLCγ1
  IC50: 0.008 µM
ITK; cell IC50 ITK vs JAK3
  Selectivity for ITK (over JAK3): 3 fold
ITK and JAK3; 10 mg TID, 15 mg BID, 30 mg BID doses
  Inhibition of biomarker readouts, comparison of regimens: inhibited biomarker readouts to a similar extent
ITK and JAK3; MAD
  Change of MAD Day 1 EC50 vs Days 7 & 15 EC50: No significant change
  Modulation of all PD biomarker readouts: dose- and time-dependent modulation; also recorded: dose and time dependent modulation
ITK and JAK3; MAD, 15-40 mg BID, across the dosing intervals
  Inhibition of biomarker readouts: 50-90%
ITK and JAK3; MAD, 2 hours post treatment, doses of 15 mg to 80 mg
  Inhibition of biomarker readouts: Near-complete inhibition
